Source: US20210255193A1, “LYSINE REACTIVE PROBES AND USES THEREOF” (The Scripps Research Institute, priority 2017, published 2021)
Values belong to the compound of their own block, whether it stands above or below them.

What was measured:
[1] = biological target: T1, EHD1 EH domain-containing protein 1 (Homo sapiens, UniProt Q9H4M9); experiment: competitive isoTOP-ABPP; format: binding
T1 construct: endogenous in cells; host or cells: MDA-MB-231 (soluble fraction of lysate)
T1 sequence (Q9H4M9 1-534): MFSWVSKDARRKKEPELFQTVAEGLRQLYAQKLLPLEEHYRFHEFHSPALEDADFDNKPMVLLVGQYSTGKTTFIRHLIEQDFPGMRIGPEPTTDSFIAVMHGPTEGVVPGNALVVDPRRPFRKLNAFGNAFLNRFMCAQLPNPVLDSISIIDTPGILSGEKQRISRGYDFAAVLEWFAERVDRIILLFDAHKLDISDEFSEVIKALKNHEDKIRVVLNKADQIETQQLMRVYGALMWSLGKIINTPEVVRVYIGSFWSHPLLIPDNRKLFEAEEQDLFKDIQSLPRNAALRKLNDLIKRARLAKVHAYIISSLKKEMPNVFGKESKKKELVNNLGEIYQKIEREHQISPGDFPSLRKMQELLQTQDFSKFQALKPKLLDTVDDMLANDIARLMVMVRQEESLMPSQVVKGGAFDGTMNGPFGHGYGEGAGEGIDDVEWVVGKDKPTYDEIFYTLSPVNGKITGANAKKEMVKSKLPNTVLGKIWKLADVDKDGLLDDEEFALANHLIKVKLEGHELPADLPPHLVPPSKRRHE
In short: (§1)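 Cell lysate (0.5 ml) was pre-treated with fragment, 50 μM for activated esters or 100 μM for guanidinylating agents, versus DMSO, then labeled 1 h at ambient temperature with 0.1 mM STP-alkyne. Light/heavy TEV tags attached by CuAAC; R = DMSO/compound MS1 peak-area ratio, median per lysine.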

[2] = biological target: T2, REEP5 Receptor expression-enhancing protein 5 (Homo sapiens, UniProt Q00765); experiment: competitive isoTOP-ABPP; format: binding
T2 construct: isoTOP-ABPP experiments performed in cell lysates (in vitro); endogenous in cells; host or cells: soluble proteome of human cancer cell lines (MDA-MB-231, Ramos, Jurkat)
In short: as §1

T2 sequence (Q00765 whole entry): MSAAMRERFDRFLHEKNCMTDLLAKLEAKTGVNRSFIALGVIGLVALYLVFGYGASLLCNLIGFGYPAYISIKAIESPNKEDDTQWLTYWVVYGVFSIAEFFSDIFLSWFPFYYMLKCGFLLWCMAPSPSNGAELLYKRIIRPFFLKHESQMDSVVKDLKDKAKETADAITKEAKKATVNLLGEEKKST

R value (DMSO/fragment) for probe 1 labeling ([1]; Q9H4M9_K511, 50 uM, 231 sol, in vitro): 0.8
Structure (SMILES): O=C(CCc1cn(-c2ccccc2)nc1-c1ccccc1)Oc1c(F)c(F)c(F)c(F)c1F [fragment 19, Pentafluorophenyl 3-(1,3-diphenyl-1H-pyrazol-4-yl)propanoate]

R value (DMSO/fragment) for probe 1 labeling ([2]; Q00765_K147, 50 uM, 231 sol, in vitro): 4.8
Structure (SMILES): Cn1cc(CC(=O)Oc2c(F)c(F)c(F)c(F)c2F)c2ccccc21 [fragment 22, Pentafluorophenyl 2-(1-methyl-1H-indol-3-yl)acetate]

Structure (SMILES): O=C(Oc1ccc([N+](=O)[O-])cc1[N+](=O)[O-])C(c1ccccc1)c1ccccc1 [fragment 30, 2,4-Dinitrophenyl 2,2-diphenylacetate]
isoTOP-ABPP reactivity ratio at lysine Q9H4M9_K511 ([1]; 50 uM, 231 sol, in vitro): 0.9
isoTOP-ABPP reactivity ratio at lysine Q00765_K147 ([2]; 50 uM, 231 sol, in vitro): 20.0

Structure (SMILES): O=C(Oc1ccc([N+](=O)[O-])cc1[N+](=O)[O-])c1cc(C(F)(F)F)cc(C(F)(F)F)c1 [fragment 31, 2,4-Dinitrophenyl 3,5-bis(trifluoromethyl)benzoate]
isoTOP-ABPP reactivity ratio at lysine Q00765_K147 ([2]; 50 uM, 231 sol, in vitro): 3.0

Structure (SMILES): Cn1cc(CC(=O)Oc2ccc([N+](=O)[O-])cc2[N+](=O)[O-])c2ccccc21 [fragment 32, 2,4-Dinitrophenyl 2-(1-methyl-1H-indol-3-yl)acetate]
isoTOP-ABPP reactivity ratio at lysine Q9H4M9_K511 ([1]; 50 uM, 231 sol, in vitro): 1.2

Structure (SMILES): O=C(Oc1ccc([N+](=O)[O-])cc1[N+](=O)[O-])c1ccc(Oc2ccccc2)cc1 [fragment 39, 2,4-Dinitrophenyl 4-phenoxybenzoate]
isoTOP-ABPP ratio (R) at liganded lysine Q00765_K147 ([2]; 50 uM, in vitro, sol, 231): 1.2

Structure (SMILES): CC(=O)Oc1ccc([N+](=O)[O-])cc1[N+](=O)[O-] [fragment 43, 2,4-Dinitrophenyl acetate]
isoTOP-ABPP ratio (R) at liganded lysine Q9H4M9_K511 ([1]; 50 uM, in vitro, sol, 231): 20.0

Structure (SMILES): O=C(CCc1ccc2c(c1)OCO2)Oc1ccc([N+](=O)[O-])cc1[N+](=O)[O-] [fragment 45, 2,4-Dinitrophenyl 3-(benzo[d][1,3]dioxol-5-yl)propanoate]
isoTOP-ABPP ratio, lysine Q00765_K147 ([2]; 50 uM_231_sol_in vitro): 2.7

isoTOP-ABPP ratio, lysine Q9H4M9_K511 ([1]; 50 uM_231_sol_in vitro): 20.0
Structure (SMILES): O=C(Oc1c(F)c(F)c(C(F)(F)F)c(F)c1F)c1cc(C(F)(F)F)cc(C(F)(F)F)c1 [fragment 47, 2,3,5,6-Tetrafluoro-4-(trifluoromethyl)phenyl 3,5-bis(trifluoromethyl)benzoate]
